Assay results reported in a melting point compilation (Tetko et al.; mined from patent text by program, amines drawn as free bases though some values may be those of a salt).

melting point [°C] | SMILES
109 | C#CCOc1cc(Oc2ccc(Cl)c(Cl)c2)ncn1
111 to 112 | CCn1c(-c2ccccc2)c(C2=CCC(C(=O)O)(C(=O)O)CC2)c2ccccc21
102 to 103 | COc1ccc(CN(C(=O)C(F)(F)F)c2cc(F)cc(C#N)c2)cc1
149 to 150 | CCN1c2ncc(CCc3ccncc3)cc2C(=O)N(C)c2ccc(C#N)nc21
248 to 250 | Cc1ccc(NC(=O)N(C)Cc2cccc3c2CN(C2CCC(=O)NC2=O)C3=O)cc1Cl (stereo unspecified)
66 to 67 | CCOC(=O)C(CC)(CC)CCCS(N)(=O)=O
150 to 151 | CCOc1cc2c(cc1O[Si](C)(C)C(C)(C)C)C(=O)CC1C2CCC2(C)C(O[Si](C)(C)C(C)(C)C)CCC12 (stereo unspecified)
191 to 192 | CC(=O)OCc1nnc(N)s1
241 | CCOC(=O)C1=C(C)Nc2nc(N3CCOCC3)nc(N3CCOCC3)c2C1c1ccccc1Cl (stereo unspecified)
169 to 171 | CSC(=C[N+](=O)[O-])Nc1ccc(Cl)nc1
69 to 71 | N#Cc1ccc(N)cc1Sc1ccccc1
258 | COc1cccc(CNC(=O)c2nc3sc(C(N)=O)c(C)c3c(=O)[nH]2)c1
163 to 165 | COc1ccc(C(O)(c2ccc(OC)cc2)C(O)(c2ccccc2)c2ccccc2)cc1
136 | COCCOc1ccc(/C=C/C(=O)NS(=O)(=O)c2ccccc2)c(Oc2ncc(C(F)(F)F)cc2Cl)c1
181 to 182 | CC(=O)c1ccc(C2COc3c(C)c(C)c(NC(=O)CC(C)(C)C)c(C)c32)cc1 (stereo unspecified)
> 300 | O=C1Cc2cc(C(=O)O)ccc2N1
335 to 337 | O=c1c2c[nH]c3c(c-2nn1-c1ccc(Cl)cc1)COCC3
202 to 203 | FC(F)(F)Oc1ccc(-n2cnc3ccc(-c4nnc(N5CCOCC5)o4)cc32)cc1
58 | O=C(O)CCSSc1ccccc1
72.5 to 74 | CCC(CC)Oc1cc(C)nc(Oc2c(C)cc(C)cc2C)c1C
178 to 180 | O=C(CCl)NCC(O)(c1ccccc1)c1ccccc1
176 to 181 | N#Cc1cc(F)c(NC(=O)CC(=O)C(F)(F)F)cc1F
245 to 246 | CC(C)c1cccc(C(C)C)c1NC(=O)CNC(c1ccccc1)c1ccc(C(=O)O)cc1 (stereo unspecified)
86 to 88 | Cc1ccc(S(=O)(=O)OC2=COC2)cc1
204 to 205 | CC(=O)N1c2ccccc2CC1C(N)=NO (stereo unspecified)

melting point [°C] | SMILES
186 to 188 | COC(=O)[C@H](Cc1c[nH]cn1)NC(=O)[C@H](CCC(N)=O)NC(=O)OCc1ccccc1
124 to 126 | CC(=O)NC(Cc1ccc(Cl)c(Cl)c1)C(=O)CCc1cc(C(F)(F)F)cc(C(F)(F)F)c1 (stereo unspecified)
146 to 148 | CCOC(=O)c1sc(Cl)nc1-c1ccc([N+](=O)[O-])cc1
94 to 96 | Cc1ccc(NC(=O)c2cccc(C(F)(F)F)c2)cc1-c1ccc2ncsc2c1
122 to 124 | Cc1ccc(C=CC(C)N(O)C(N)=O)o1 (stereo unspecified)
69 to 71 | CC1(c2ccc([N+](=O)[O-])cc2)OCCO1
115 | COCc1ccc2c(c1S(N)(=O)=O)S(=O)(=O)C(C)C2 (stereo unspecified)
289 to 294 | O=C(O)c1ccccc1Sc1ccc(C(O)=NCc2ccccc2)c(C(=O)O)c1
217 | COc1cc(C(=O)NCc2ccc(-c3csc(N)n3)s2)cc(OC)c1OC
157 to 158 | CCC(CC)(CCCS(N)(=O)=O)COc1nn2ncnc2cc1C
153 to 154 | OC1(C2(Cl)CC2)Cc2ncnn2C(CC(Cl)(Cl)Cl)C1 (stereo unspecified)
74 to 75 | CCOC(=O)CC(=O)Nc1ccc(Cl)c(Cl)c1
152 to 154 | C=CCNc1c(CO)cnc2cn(C(C)(C)OC)nc12
247 to 248 | CC1CCOCc2nc3c(N)nc4cc(Br)ccc4c3n21 (stereo unspecified)
75 to 77 | CC(C)(C)OC(=O)NCc1cc(N)ccc1Cl
123 to 124 | O=C(O)CCCCCCCCn1c(-c2ccccc2)c(-c2ccccc2)n(-c2ccccc2)c1=O
95 to 96 | Cc1ccsc1-c1ccc(C(C)C(=O)O)cc1 (stereo unspecified)
> 220 | COc1cc2ncnc(-c3cn(S(C)(=O)=O)c4ccccc34)c2cc1OC
237 to 241 | CC(=O)NC=Nc1ccc2nnc(-c3ncc([N+](=O)[O-])n3C)n2n1
64 to 72 | CCN(CC)c1ccc2c(c1)Oc1cc(OC(C)=O)c3ccccc3c1N2C(C)=O
75 to 77 | C=CCC12CCC(=O)C1(C)CCC1c3ccc(OC)cc3CCC12 (stereo unspecified)
118 to 122 | CC12CCC(OC(=O)COc3ccccc3)CC1=CCC1C2CCC2(C)C(=NO)CCC12 (stereo unspecified)
141 to 142 | COC(=O)c1ccc(-c2nc(-c3c(F)c(F)c(F)c(F)c3F)cs2)cc1
85 to 87 | CN(C)Cc1ccc2n1Cc1ccccc1N(C(=O)c1ccc(-c3ccccc3)cc1)C2
50 to 52 | CCOC1C=CC(=O)N1 (stereo unspecified)

melting point [°C] | SMILES
98 to 100 | CCNC=C(C(=O)C=Cc1ccc(N(C)C)c(C)c1)C(=O)OC
128 to 129 | CC(=NOCC(=O)O)c1ccc(Cl)c(Cl)c1
174 to 176 | CCN1c2ncc(CC(O)c3ccncc3)cc2C(=O)N(C)c2ccc(F)nc21 (stereo unspecified)
39 to 43 | CC(OCc1ccc2ccccc2c1)(C(=O)Cl)C(F)(F)F (stereo unspecified)
240 to 250 | COC(=O)c1ccc(-c2nc3cc(Cl)c(Cl)cc3[nH]2)cc1
250 to 254 | COc1ccc(-c2ccc(C(=O)O)cc2)cc1
230 to 231 | Cn1c2c(c3cccc(C#N)c31)C(=O)NCC2
165 to 166 | Cc1ccc(C(=O)NCC(N)=O)cc1-c1cccc2cc(Cc3cccc(C(F)(F)F)c3)sc12
114 to 116 | CCCCNC(=O)c1ccc(C(F)(F)F)c(-n2nc(CC)n(Cc3ccc(-c4ccccc4S(=O)(=O)NC(=O)OC(C)(C)C)cc3F)c2=O)c1
206 to 209 | COc1ccc(C(C)C)cc1-c1cc(-c2nnnn2CCc2ccccc2)c(O)cc1O
112 | CCOC(=O)C1CSCCN1C(=O)Nc1ccc(Cl)cc1F (stereo unspecified)
131 to 133 | COc1ccc(N(CCCC(=O)N(CCCC(=O)O)c2c(C)cccc2C)C(=O)c2ccc(Cl)cc2)cc1
196 to 198 | O=C1CN(c2ccccc2)C(=O)N1C(=O)c1ccc(-c2ccccc2)cc1
171 | CC(=O)Nc1c([N+](=O)[O-])cc(Br)c2c1CCN(C(C)=O)C2
67 to 69 | CCN(CC)c1nc(CO)cs1
214 to 217 | CCCCC(=O)Oc1c(-c2ccc(-c3ccccc3)cc2)nc2ccc(F)cc2c1C(=O)O
174 to 175 | CN1C(=O)N(CC(COc2ccc(-c3ccc(S(C)(=O)=O)cc3)cc2)N(O)C=O)C(=O)C1(C)C (stereo unspecified)
86 to 88 | CC(C)c1nc2cc(COc3ccc(C=O)cc3)ccc2o1
252 to 254 | O=S1(=O)NC(C2=CCCCC2)Nc2cc(Cl)ccc21 (stereo unspecified)
96 to 98 | COc1ccccc1N1CCN(CC(O)CCl)CC1 (stereo unspecified)
147 to 148 | COc1ccc(CN2C(=O)C3CC(c4ccc(N)cc4)(C3)C2=O)cc1
196 to 197 | CCN1c2ncc(COc3ccc(C(=O)OC)cc3)cc2C(=O)N(C)c2ccc(Cl)nc21
102 to 145 | NC1CCc2ccccc2C1NC(=O)OCc1ccccc1 (stereo unspecified)
167 to 171 | NC(=O)C1=CC=CNC=C1
249 to 251 | O=C(Nc1nnc(C(F)(F)F)s1)c1ccc2ccccc2c1

melting point [°C] | SMILES
136 to 138 | COc1cccc(-c2nc3n(n2)Cc2ccc(OC)cc2-3)c1
128 to 130 | COc1c(C)c2c(c(O)c1C/C=C1\CCC(C(=O)O)C1)C(=O)OC2 (stereo unspecified)
143 to 145 | Cc1cc(Oc2ccc(N)cc2C(F)(F)F)n[nH]1
146 to 147 | C[C@H](Nc1nc(Cl)nc(Cl)n1)c1ccccc1
142 to 143 | CC(C)(C)CN1C(=O)C2CC(c3ccc(N)cc3)(C2)C1=O
53 to 54 | Cc1nnc(Sc2c(C)cccc2C)o1
217 to 219 | O=C(NC1CCCCC1)N[C@H]1C[C@H](C(=O)O)Nc2cc(Cl)cc(Cl)c21 (relative stereo)
109 to 110 | O=C(CCc1cccnc1)NCCCC1CCN(C(c2ccccc2)c2ccccc2)CC1
92.8 to 93.6 | CCCc1cc(C=O)c(O)cc1O
52 to 54 | CCn1c(=O)ccc2ccccc21
147 to 149 | CC(C)Cn1c(CNC(=O)OC(C)(C)C)c(-c2ccc(Cl)cc2)c2cc(/C=C/C(=O)O)ccc2c1=O
155 to 156 | O=S1CSC(=C(c2ccc(F)cc2)c2ccc(F)cc2)SC1 (stereo unspecified)
137 | O=C(O)C[C@@H](c1ccccc1)c1c[nH]c2cc(OCCCNc3ccccn3)ccc12
136 to 137 | Cc1oc(-c2ccccc2)nc1CCOc1ccc(CCCCC2OC(=O)NC2=O)cc1 (stereo unspecified)
68 to 70 | O=Cc1ccc(OCc2ccccc2)cn1
198 to 200 | Nc1nc(N)nc(-c2ccc(Oc3ccccc3)cc2)n1
58 to 59.5 | CCCCCCCCCCC#CC#CCCCCCCCCC(=O)OC(=O)CCCCCCCCC#CC#CCCCCCCCCCC
220 to 221 | COc1ccc(C)cc1NC(=O)Nc1ccc(N2CCN(c3ncccn3)CC2)cc1
210 to 213 | CC(C)(C)OC(=O)NC1CCc2cc(C(=O)O)ccc2C1 (stereo unspecified)
128 to 130 | CC(F)=C1CCC2C3CC=C4CC(O[Si](C)(C)C(C)(C)C)CCC4(C)C3CCC12C (stereo unspecified)
204 | CS(=O)(=O)c1c(F)cc(C2=C(c3ccccc3)C(=O)OC2)cc1F
245 to 249 | CCC1C(=O)Nc2cc3[nH]c(-c4ccc(NC(C)=O)cc4OC)nc3cc21 (stereo unspecified)
87 | CCCCc1cnc(-c2ccc(C#N)c(F)c2)nc1

SMILES | melting point [°C]
O=C(OC1CCCCC1)c1ncn2c1[C@@H]1CCCN1C(=O)c1c-2ccc(F)c1Cl | 163 to 166
O=C1c2c(Cl)cccc2-n2cnc(-c3nc(CN4Cc5ccccc5C4)no3)c2[C@@H]2CCN12 | 170 to 175
COc1ccc(C2(CCN3CCC(C(=O)c4nc5ccccc5n4Cc4ccc(F)cc4)CC3)CCN(C(=O)c3ccccc3)C2)cc1OC (stereo unspecified) | 42 to 44
